One experiment addresses T1, GIP-R (Homo sapiens, UniProt P48546).
T1 sequence (P48546 22-466): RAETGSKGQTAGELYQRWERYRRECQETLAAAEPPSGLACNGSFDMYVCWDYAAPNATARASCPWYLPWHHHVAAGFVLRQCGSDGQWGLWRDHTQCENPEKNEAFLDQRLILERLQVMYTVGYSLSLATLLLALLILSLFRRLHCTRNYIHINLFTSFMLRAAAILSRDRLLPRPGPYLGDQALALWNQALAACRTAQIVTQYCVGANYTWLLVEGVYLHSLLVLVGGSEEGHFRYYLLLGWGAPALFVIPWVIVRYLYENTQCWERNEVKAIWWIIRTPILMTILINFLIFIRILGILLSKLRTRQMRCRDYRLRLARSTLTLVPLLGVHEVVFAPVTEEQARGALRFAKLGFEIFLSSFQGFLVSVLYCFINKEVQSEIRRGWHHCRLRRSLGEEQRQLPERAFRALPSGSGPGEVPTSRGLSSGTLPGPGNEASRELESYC
As to the kind of experiment: HitHunter cAMP assay (GIP-R). It counts as cell-based. The note with it: Table 3A; cAMP; read-out: (Emax) GIP-R. The method, then:
(§1) Suspension cells were harvested and resuspended in 1×HBSS (+10 mM HEPES, 625 μM IBMX, 0.2% BSA) according to the following procedure: 5 μL of 2× cell suspension+1× antibody were added to each well, where the optimal cell density was 10,000 cells per well in a low volume 384-well plate. Agonist serial dilutions in a separate 384 well dilution plate in a 22-point series of 2× dilutions of agonist in DMSO were performed as follows. 80 μL of the highest concentration of Agonist/DMSO was added to well No. 1. 40 μL was removed from well No. 1 and added it to well No. 2, followed by gentle mixing. […] This process was repeated until well No. 22. Additional serial dilutions for additional agonists were set up in a similar manner. 50 nL of each 2× agonist serial dilution was added in duplicate to the designated agonist rows of the assay plate using the Labcyte ECHO. Assay plate was incubated for 30 minutes at room temperature. Following agonist incubation, 5 μL of cAMP Antibody Reagent was added to all wells. […] Plates were spun down briefly. Assay plate was incubated for 1 hour at room temperature in the dark for the immunocompetition reaction to occur. […] Plates were spun down briefly. Assay plate was incubated O/N at room temperature in the dark. Samples were read on Tecan i-control plate reader using luminescence mode with 300 ms integration time. Data analysis was performed using GraphPad Prism.

Another experiment concerns the target GLP-1R (Homo sapiens, UniProt P43220). As to the kind of experiment: HitHunter cAMP assay (GLP-1R). The class given is cell-based. The note with it: cAMP; for Emax: read-out: (Emax) GLP-1R. As for the experimental part: as §1
Setting [1] is: Table 3A, read-out: EC50 GLP-1R/nM.

Read-outs that look alike come from different tables or passages of the source.

GLP-1R, sequence (P43220 24-463): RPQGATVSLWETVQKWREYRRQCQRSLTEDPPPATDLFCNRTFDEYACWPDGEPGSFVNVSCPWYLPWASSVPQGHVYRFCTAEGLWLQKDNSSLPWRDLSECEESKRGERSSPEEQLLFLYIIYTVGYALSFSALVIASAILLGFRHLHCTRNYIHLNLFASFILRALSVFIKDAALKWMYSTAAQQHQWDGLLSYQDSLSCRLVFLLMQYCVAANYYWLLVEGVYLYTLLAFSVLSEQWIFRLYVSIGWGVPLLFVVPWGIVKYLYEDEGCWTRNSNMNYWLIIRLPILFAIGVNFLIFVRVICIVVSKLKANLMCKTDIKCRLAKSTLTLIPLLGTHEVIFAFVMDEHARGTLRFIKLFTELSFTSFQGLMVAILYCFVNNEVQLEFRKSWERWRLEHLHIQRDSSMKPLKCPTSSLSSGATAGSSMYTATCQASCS

In the case of `CCCCCCCCCCCCCCCC(=O)N[C@@H](CCC(=O)NCCCC[C@H](NC(=O)[C@H](CO)NC(=O)[C@@H]1CCCN1C(=O)[C@@H]1CCCN1C(=O)[C@@H]1CCCN1C(=O)[C@H](C)NC(=O)CNC(=O)[C@H](CO)NC(=O)[C@H](CO)NC(=O)[C@@H]1CCCN1C(=O)CNC(=O)CNC(=O)[C@H](C)NC(=O)[C@H](CC(C)C)NC(=O)[C@H](CC(C)C)NC(=O)[C@H](Cc1c[nH]c2ccccc12)NC(=O)[C@H](CC(N)=O)NC(=O)[C@@H](NC(=O)[C@H](Cc1ccccc1)NC(=O)[C@H](CCC(=O)O)NC(=O)C(C)(C)NC(=O)[C@H](C)NC(=O)[C@H](C)NC(=O)[C@H](CCC(N)=O)NC(=O)[C@H](CCCCN)NC(=O)[C@H](CC(=O)O)NC(=O)[C@H](CC(C)C)NC(=O)[C@H](Cc1ccc(O)cc1)NC(=O)[C@@H](NC(=O)[C@H](CO)NC(=O)[C@H](Cc1ccc(O)cc1)NC(=O)[C@H](CC(=O)O)NC(=O)[C@H](CO)NC(=O)[C@@H](NC(=O)[C@H](Cc1ccccc1)NC(=O)[C@@H](NC(=O)CNC(=O)[C@H](CCC(=O)O)NC(=O)CSCC(=O)NCCN1CC[C@@H](O)CC1=O)[C@@H](C)O)[C@@H](C)O)[C@@H](C)CC)C(C)C)C(N)=O)C(=O)O` (single isomer, unassigned) [Compound 203], on GIP-R, the Emax was 44%.

`CCCCCCCCCCCCCCCC(=O)N[C@@H](CCC(=O)NCCCC[C@H](NC(=O)[C@H](CO)NC(=O)[C@@H]1CCCN1C(=O)[C@@H]1CCCN1C(=O)[C@@H]1CCCN1C(=O)[C@H](C)NC(=O)CNC(=O)[C@H](CO)NC(=O)[C@H](CO)NC(=O)[C@@H]1CCCN1C(=O)CNC(=O)CNC(=O)[C@H](C)NC(=O)[C@H](CC(C)C)NC(=O)[C@H](CC(C)C)NC(=O)[C@H](Cc1c[nH]c2ccccc12)NC(=O)[C@H](CC(N)=O)NC(=O)[C@@H](NC(=O)[C@H](Cc1ccccc1)NC(=O)[C@H](CCC(=O)O)NC(=O)C(C)(C)NC(=O)[C@H](C)NC(=O)[C@H](C)NC(=O)[C@H](CCC(N)=O)NC(=O)[C@H](CCCCN)NC(=O)[C@H](CC(=O)O)NC(=O)[C@H](CC(C)C)NC(=O)[C@H](Cc1ccc(O)cc1)NC(=O)[C@@H](NC(=O)[C@H](CO)NC(=O)[C@H](Cc1ccc(O)cc1)NC(=O)[C@H](CC(=O)O)NC(=O)[C@H](CO)NC(=O)[C@@H](NC(=O)[C@H](Cc1ccccc1)NC(=O)[C@@H](NC(=O)CNC(=O)[C@H](CCC(=O)O)NC(=O)CSCC(=O)NCCN1CCC[C@@H](C)C1=O)[C@@H](C)O)[C@@H](C)O)[C@@H](C)CC)C(C)C)C(N)=O)C(=O)O` (single isomer, unassigned) [Compound 208]: on GIP-R, the Emax was 59%.

As for `CCCCCCCCCCCCCCCC(=O)N[C@@H](CCC(=O)NCCCC[C@H](NC(=O)[C@H](CO)NC(=O)[C@@H]1CCCN1C(=O)[C@@H]1CCCN1C(=O)[C@@H]1CCCN1C(=O)[C@H](C)NC(=O)CNC(=O)[C@H](CO)NC(=O)[C@H](CO)NC(=O)[C@@H]1CCCN1C(=O)CNC(=O)CNC(=O)[C@H](C)NC(=O)[C@H](CC(C)C)NC(=O)[C@H](CC(C)C)NC(=O)[C@H](Cc1c[nH]c2ccccc12)NC(=O)[C@H](CC(N)=O)NC(=O)[C@@H](NC(=O)[C@H](Cc1ccccc1)NC(=O)[C@H](CCC(=O)O)NC(=O)C(C)(C)NC(=O)[C@H](C)NC(=O)[C@H](C)NC(=O)[C@H](CCC(N)=O)NC(=O)[C@H](CCCCN)NC(=O)[C@H](CC(=O)O)NC(=O)[C@H](CC(C)C)NC(=O)[C@H](Cc1ccc(O)cc1)NC(=O)[C@@H](NC(=O)[C@H](CO)NC(=O)[C@H](Cc1ccc(O)cc1)NC(=O)[C@H](CC(=O)O)NC(=O)[C@H](CO)NC(=O)[C@@H](NC(=O)[C@H](Cc1ccccc1)NC(=O)[C@@H](NC(=O)CNC(=O)[C@H](CCC(=O)O)NC(=O)C(=O)NCCN1CCCCC1=O)[C@@H](C)O)[C@@H](C)O)[C@@H](C)CC)C(C)C)C(N)=O)C(=O)O` [Compound 215], the Emax at GLP-1R (Table 3A) is 103%. For the same compound, on GLP-1R (setting [1]), the EC50 lay within 1 to 10 nM.

Turning to `CCCCCCCCCCCCCCCC(=O)N[C@@H](CCC(=O)NCCCC[C@H](NC(=O)[C@H](CO)NC(=O)[C@@H]1CCCN1C(=O)[C@@H]1CCCN1C(=O)[C@@H]1CCCN1C(=O)[C@H](C)NC(=O)CNC(=O)[C@H](CO)NC(=O)[C@H](CO)NC(=O)[C@@H]1CCCN1C(=O)CNC(=O)CNC(=O)[C@H](C)NC(=O)[C@H](CC(C)C)NC(=O)[C@H](CC(C)C)NC(=O)[C@H](Cc1c[nH]c2ccccc12)NC(=O)[C@H](CC(N)=O)NC(=O)[C@@H](NC(=O)[C@H](Cc1ccccc1)NC(=O)[C@H](CCC(=O)O)NC(=O)C(C)(C)NC(=O)[C@H](C)NC(=O)[C@H](C)NC(=O)[C@H](CCC(N)=O)NC(=O)[C@H](CCCCN)NC(=O)[C@H](CC(=O)O)NC(=O)[C@H](CC(C)C)NC(=O)[C@H](Cc1ccc(O)cc1)NC(=O)[C@@H](NC(=O)[C@H](CO)NC(=O)[C@H](Cc1ccc(O)cc1)NC(=O)[C@H](CC(=O)O)NC(=O)[C@H](CO)NC(=O)[C@@H](NC(=O)[C@H](Cc1ccccc1)NC(=O)[C@@H](NC(=O)CNC(=O)[C@@H](CCc1nn[nH]n1)NC(=O)CSCC(=O)NCCN1CCCCC1=O)[C@@H](C)O)[C@@H](C)O)[C@@H](C)CC)C(C)C)C(N)=O)C(=O)O` [Compound 222], the Emax on GLP-1R (Table 3A) was 99%. For the same compound, on GLP-1R (setting [1]), the EC50 lay in the range of 1 to 10 nM.

On to `CCCCCCCCCCCCCCCC(=O)N[C@@H](CCC(=O)NCCCC[C@H](NC(=O)[C@H](CO)NC(=O)[C@@H]1CCCN1C(=O)[C@@H]1CCCN1C(=O)[C@@H]1CCCN1C(=O)[C@H](C)NC(=O)CNC(=O)[C@H](CO)NC(=O)[C@H](CO)NC(=O)[C@@H]1CCCN1C(=O)CNC(=O)CNC(=O)[C@H](C)NC(=O)[C@H](CC(C)C)NC(=O)[C@H](CC(C)C)NC(=O)[C@H](Cc1c[nH]c2ccccc12)NC(=O)[C@H](CC(N)=O)NC(=O)[C@@H](NC(=O)[C@H](Cc1ccccc1)NC(=O)[C@H](CCC(=O)O)NC(=O)C(C)(C)NC(=O)[C@H](C)NC(=O)[C@H](C)NC(=O)[C@H](CCC(N)=O)NC(=O)[C@H](CCCCN)NC(=O)[C@H](CC(=O)O)NC(=O)[C@H](CC(C)C)NC(=O)[C@H](Cc1ccc(O)cc1)NC(=O)[C@@H](NC(=O)[C@H](CO)NC(=O)[C@H](Cc1ccc(O)cc1)NC(=O)[C@H](CC(=O)O)NC(=O)[C@H](CO)NC(=O)[C@@H](NC(=O)[C@H](Cc1ccccc1)NC(=O)[C@@H](NC(=O)CNC(=O)[C@H](CCC(=O)O)NC(=O)CSCC(=O)NCCN1C(=O)CC(C)(C(C)C)C1=O)[C@@H](C)O)[C@@H](C)O)[C@@H](C)CC)C(C)C)C(N)=O)C(=O)O` (mixture of isomers) [Compound 101], for which the EC50 at GLP-1R (EC50 GLP-1R/nM, Table 3) is 10 to 100 nM; at GLP-1R (EC50 GLP-1R/nM, Table 3A), 10 to 100 nM. The Emax on GLP-1R (Table 3) and on GLP-1R (Table 3A) was 92% each time.

Regarding `CCCCCCCCCCCCCCCC(=O)N[C@@H](CCC(=O)NCCCC[C@H](NC(=O)[C@H](CO)NC(=O)[C@@H]1CCCN1C(=O)[C@@H]1CCCN1C(=O)[C@@H]1CCCN1C(=O)[C@H](C)NC(=O)CNC(=O)[C@H](CO)NC(=O)[C@H](CO)NC(=O)[C@@H]1CCCN1C(=O)CNC(=O)CNC(=O)[C@H](C)NC(=O)[C@H](CC(C)C)NC(=O)[C@H](CC(C)C)NC(=O)[C@H](Cc1c[nH]c2ccccc12)NC(=O)[C@H](CC(N)=O)NC(=O)[C@@H](NC(=O)[C@H](Cc1ccccc1)NC(=O)[C@H](CCC(=O)O)NC(=O)C(C)(C)NC(=O)[C@H](C)NC(=O)[C@H](C)NC(=O)[C@H](CCC(N)=O)NC(=O)[C@H](CCCCN)NC(=O)[C@H](CC(=O)O)NC(=O)[C@H](CC(C)C)NC(=O)[C@H](Cc1ccc(O)cc1)NC(=O)[C@@H](NC(=O)[C@H](CO)NC(=O)[C@H](Cc1ccc(O)cc1)NC(=O)[C@H](CC(=O)O)NC(=O)[C@H](CO)NC(=O)[C@@H](NC(=O)[C@H](Cc1ccccc1)NC(=O)[C@@H](NC(=O)CNC(=O)[C@H](CCC(=O)O)NC(=O)CSCC(=O)NCCN1CCC[C@H](C)C1=O)[C@@H](C)O)[C@@H](C)O)[C@@H](C)CC)C(C)C)C(N)=O)C(=O)O` (single isomer, unassigned) [Compound 207], the Emax on GIP-R worked out at 68%.
